For test [1], the target named is Receptor tyrosine-protein kinase erbB-4 (Homo sapiens) (UniProt Q15303). Briefly: Inhibition of recombinant humans GST-tagged ERBB4 cytoplasmic domain expressed in baculovirus expression system at 500 nM by Z-LYTE assay relative to control.
The target in test [2] is Protein kinase C alpha type (Homo sapiens) (UniProt P17252). The test is described as follows: Inhibition of recombinant human full length untagged PKCalpha expressed in baculovirus expression system at 500 nM by Z-LYTE assay relative to control.
Test [3] addresses Phosphatidylinositol 4,5-bisphosphate 3-kinase catalytic subunit gamma isoform (Homo sapiens) (UniProt P48736). Briefly: Inhibition of recombinant full length human His-tagged PI3K p110ggamma at 500 nM by Z-LYTE assay relative to control.
Test [4] addresses Serine/threonine-protein kinase pim-3 (Homo sapiens) (UniProt Q86V86). Briefly: Inhibition of recombinant full length human GST-tagged PIM3 expressed in insect cells at 500 nM by Z-LYTE assay relative to control.
In test [5] the target is Tyrosine-protein kinase Yes (Homo sapiens) (UniProt P07947). Briefly: Inhibition of human full length GST-tagged YES1 expressed in baculovirus expression system at 500 nM by Z-LYTE assay relative to control.
Test [6] concerns the target Glycogen synthase kinase-3 beta (Homo sapiens) (UniProt P49841). The test is described as follows: Inhibition of recombinant full-length human His-tagged GSK3beta expressed in baculovirus expression system at 500 nM by Z-LYTE assay relative to control.
The target of test [7] is Macrophage colony-stimulating factor 1 receptor (Homo sapiens) (UniProt P07333). The test is described as follows: Inhibition of recombinant human His-tagged CSF1R (538 to 910 residues) expressed in baculovirus expression system at 500 nM by Z-LYTE assay relative to control.
The target of test [8] is Glycogen synthase kinase-3 alpha (Homo sapiens) (UniProt P49840). Briefly: Inhibition of GSK3alpha (unknown origin) at 500 nM by Z-LYTE assay relative to control.
Test [9] has as its target Epidermal growth factor receptor (Homo sapiens) (UniProt P00533). Briefly: Inhibition of recombinant human GST-tagged wild-type EGFR cytoplasmic domain (668 to 1210 residues) expressed in baculovirus expression system at 500 nM by Z-LYTE assay relative to control.
Test [10] deals with T1, Inhibitor of nuclear factor kappa-B kinase subunit beta (Homo sapiens) (UniProt O14920).
T1 sequence (whole entry): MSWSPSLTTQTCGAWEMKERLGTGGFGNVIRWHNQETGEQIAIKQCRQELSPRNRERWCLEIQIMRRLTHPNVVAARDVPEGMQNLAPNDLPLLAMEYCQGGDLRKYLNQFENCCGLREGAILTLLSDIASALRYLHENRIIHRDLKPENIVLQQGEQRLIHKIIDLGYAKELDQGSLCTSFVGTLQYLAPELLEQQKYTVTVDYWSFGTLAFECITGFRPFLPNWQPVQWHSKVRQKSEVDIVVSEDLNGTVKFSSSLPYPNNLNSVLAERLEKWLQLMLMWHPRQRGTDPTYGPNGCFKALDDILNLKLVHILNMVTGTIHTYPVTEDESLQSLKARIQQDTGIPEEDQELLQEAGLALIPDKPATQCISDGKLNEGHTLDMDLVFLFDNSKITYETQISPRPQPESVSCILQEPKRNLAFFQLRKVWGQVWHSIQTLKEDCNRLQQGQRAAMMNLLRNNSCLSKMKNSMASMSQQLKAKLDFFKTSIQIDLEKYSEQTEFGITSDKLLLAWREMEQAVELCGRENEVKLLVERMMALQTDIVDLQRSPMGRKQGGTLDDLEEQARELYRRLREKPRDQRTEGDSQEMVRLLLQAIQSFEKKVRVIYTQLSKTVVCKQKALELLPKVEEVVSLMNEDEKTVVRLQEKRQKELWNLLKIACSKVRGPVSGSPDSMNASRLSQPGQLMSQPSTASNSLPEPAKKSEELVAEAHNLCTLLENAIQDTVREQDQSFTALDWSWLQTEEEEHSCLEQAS
Briefly: Inhibition of recombinant full-length human GST-tagged IKKbeta expressed in baculovirus expression system at 500 nM by Z-LYTE assay relative to control.

Test [11] has as its target Dual specificity mitogen-activated protein kinase kinase 1 (Homo sapiens) (UniProt Q02750). Briefly: Inhibition of recombinant human full length His-tagged MEK1 expressed in baculovirus expression system at 500 nM by Z-LYTE assay relative to control.
A further test has as its system PBMC. The test is described as follows: Cytotoxicity against human PBMC assessed as induction of cell death by cell Titer-Glo assay. Format: cell-based.
Test [12] has as its target Vascular endothelial growth factor receptor 2 (Homo sapiens) (UniProt P35968). Briefly: Inhibition of recombinant human His-tagged KDR cytoplasmic domain (789 to 1356 residues) expressed in baculovirus expression system at 500 nM by Z-LYTE assay relative to control.
Test [13] concerns the target T2, Calcium/calmodulin-dependent protein kinase type IV (Homo sapiens) (UniProt Q16566).
T2 sequence (whole entry): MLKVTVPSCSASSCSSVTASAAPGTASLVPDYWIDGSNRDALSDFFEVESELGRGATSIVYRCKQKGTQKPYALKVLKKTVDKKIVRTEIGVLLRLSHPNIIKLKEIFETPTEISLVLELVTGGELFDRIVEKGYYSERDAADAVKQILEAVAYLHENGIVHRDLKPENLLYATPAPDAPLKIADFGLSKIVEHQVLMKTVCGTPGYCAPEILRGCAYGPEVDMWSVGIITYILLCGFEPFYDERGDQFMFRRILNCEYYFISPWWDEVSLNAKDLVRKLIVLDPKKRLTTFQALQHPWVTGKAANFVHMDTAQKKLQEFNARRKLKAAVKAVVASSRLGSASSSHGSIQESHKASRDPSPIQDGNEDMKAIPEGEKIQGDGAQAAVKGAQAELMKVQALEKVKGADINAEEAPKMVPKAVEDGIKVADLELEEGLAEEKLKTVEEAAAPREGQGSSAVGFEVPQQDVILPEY
Briefly: Inhibition of recombinant human full length GST-tagged CAMK4 expressed in Escherichia coli at 500 nM by Z-LYTE assay relative to control.

This is an account of results in ChEMBL document CHEMBL4152312, “Identification of fused pyrimidines as interleukin 17 secretion inhibitors” (Eur J Med Chem, 2018).

Some results are limits rather than exact numbers.

Chain of Macrophage colony-stimulating factor 1 receptor (Homo sapiens) (P07333 whole entry, the tested form may be a part): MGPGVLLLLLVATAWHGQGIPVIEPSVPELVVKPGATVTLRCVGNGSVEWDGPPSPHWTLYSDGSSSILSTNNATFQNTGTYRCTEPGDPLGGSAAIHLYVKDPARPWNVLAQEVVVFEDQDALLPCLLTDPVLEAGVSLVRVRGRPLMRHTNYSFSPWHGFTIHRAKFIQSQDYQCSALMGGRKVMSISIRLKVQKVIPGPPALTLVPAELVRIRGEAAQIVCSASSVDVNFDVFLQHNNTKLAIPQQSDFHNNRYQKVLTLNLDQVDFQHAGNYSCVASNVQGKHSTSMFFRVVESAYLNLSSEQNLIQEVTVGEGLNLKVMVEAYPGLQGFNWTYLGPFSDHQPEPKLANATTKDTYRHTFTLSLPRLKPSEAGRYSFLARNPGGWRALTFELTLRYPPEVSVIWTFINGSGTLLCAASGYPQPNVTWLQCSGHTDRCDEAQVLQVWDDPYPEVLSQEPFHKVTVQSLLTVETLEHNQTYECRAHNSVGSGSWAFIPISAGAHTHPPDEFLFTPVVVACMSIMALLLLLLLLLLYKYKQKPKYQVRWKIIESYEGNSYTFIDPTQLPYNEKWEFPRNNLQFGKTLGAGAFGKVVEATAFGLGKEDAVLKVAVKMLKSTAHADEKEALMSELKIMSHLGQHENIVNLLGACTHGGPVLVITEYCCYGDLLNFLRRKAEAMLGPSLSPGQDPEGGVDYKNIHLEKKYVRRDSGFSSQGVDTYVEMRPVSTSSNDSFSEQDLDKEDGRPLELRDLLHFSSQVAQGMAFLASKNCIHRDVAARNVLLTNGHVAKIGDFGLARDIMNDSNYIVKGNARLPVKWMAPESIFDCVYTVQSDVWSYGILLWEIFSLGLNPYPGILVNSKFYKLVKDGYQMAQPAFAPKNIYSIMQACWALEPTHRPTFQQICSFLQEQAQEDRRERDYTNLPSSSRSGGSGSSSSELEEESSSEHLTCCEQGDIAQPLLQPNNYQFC
Chain of Glycogen synthase kinase-3 alpha (Homo sapiens) (P49840 2-483 limits assumed): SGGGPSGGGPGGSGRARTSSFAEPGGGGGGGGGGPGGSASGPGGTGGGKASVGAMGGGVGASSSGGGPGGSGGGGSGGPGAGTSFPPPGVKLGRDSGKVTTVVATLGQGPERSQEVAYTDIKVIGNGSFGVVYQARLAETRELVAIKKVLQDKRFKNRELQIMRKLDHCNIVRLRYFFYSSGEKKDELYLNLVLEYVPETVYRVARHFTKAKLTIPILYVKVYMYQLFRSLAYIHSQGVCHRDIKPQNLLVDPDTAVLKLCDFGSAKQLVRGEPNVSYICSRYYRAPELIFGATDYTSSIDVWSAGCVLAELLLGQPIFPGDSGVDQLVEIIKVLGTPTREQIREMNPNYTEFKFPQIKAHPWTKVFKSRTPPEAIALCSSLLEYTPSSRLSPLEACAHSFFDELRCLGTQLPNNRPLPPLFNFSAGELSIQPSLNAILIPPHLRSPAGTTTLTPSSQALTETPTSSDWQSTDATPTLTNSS
Chain of Receptor tyrosine-protein kinase erbB-4 (Homo sapiens) (Q15303 whole entry, the tested form may be a part): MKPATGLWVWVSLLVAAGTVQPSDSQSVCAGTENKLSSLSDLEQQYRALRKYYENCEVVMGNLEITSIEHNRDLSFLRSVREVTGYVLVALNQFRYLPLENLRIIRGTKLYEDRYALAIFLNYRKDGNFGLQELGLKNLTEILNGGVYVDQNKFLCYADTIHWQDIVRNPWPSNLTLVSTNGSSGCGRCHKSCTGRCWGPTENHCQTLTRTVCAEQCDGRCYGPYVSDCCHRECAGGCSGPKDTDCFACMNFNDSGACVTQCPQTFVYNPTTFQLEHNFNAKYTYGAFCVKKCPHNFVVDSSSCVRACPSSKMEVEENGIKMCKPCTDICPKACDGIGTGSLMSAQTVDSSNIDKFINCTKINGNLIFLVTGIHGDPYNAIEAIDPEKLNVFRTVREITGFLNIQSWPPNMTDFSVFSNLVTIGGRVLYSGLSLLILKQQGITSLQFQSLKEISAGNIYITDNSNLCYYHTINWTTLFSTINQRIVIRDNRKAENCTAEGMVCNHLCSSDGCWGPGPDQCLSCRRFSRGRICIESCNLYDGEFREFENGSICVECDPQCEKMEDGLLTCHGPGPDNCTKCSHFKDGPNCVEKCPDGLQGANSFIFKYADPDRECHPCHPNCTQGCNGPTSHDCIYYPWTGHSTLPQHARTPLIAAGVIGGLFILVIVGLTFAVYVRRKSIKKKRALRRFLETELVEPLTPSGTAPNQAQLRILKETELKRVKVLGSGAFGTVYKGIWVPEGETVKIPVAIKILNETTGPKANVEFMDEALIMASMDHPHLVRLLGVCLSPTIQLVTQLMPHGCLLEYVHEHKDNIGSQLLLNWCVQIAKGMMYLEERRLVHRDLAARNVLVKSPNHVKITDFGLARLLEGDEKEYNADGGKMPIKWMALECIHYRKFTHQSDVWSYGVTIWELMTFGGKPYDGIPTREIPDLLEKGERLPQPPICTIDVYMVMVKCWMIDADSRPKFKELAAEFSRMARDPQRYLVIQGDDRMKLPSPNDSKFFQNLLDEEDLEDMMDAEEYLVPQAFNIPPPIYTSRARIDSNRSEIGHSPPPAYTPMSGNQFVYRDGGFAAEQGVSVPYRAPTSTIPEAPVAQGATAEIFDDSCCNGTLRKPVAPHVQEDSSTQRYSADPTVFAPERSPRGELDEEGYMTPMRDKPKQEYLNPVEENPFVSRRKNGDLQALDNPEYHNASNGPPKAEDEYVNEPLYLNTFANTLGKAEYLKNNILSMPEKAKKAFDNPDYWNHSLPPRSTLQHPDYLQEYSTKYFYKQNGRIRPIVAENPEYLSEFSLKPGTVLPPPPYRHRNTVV
Chain of Glycogen synthase kinase-3 beta (Homo sapiens) (P49841 whole entry, looked up, the tested form may be a part): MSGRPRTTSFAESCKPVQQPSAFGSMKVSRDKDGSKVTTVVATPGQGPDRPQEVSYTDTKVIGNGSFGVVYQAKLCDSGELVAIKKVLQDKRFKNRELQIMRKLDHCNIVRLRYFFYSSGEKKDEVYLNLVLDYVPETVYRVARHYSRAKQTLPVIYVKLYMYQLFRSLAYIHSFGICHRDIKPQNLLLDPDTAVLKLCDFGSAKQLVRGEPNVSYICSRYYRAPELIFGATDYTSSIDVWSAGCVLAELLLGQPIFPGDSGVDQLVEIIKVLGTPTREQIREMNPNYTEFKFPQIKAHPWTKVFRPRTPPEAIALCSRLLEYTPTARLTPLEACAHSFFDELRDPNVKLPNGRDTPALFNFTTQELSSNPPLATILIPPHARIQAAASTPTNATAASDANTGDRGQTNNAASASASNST
Chain of Vascular endothelial growth factor receptor 2 (Homo sapiens) (P35968 whole entry, the tested form may be a part): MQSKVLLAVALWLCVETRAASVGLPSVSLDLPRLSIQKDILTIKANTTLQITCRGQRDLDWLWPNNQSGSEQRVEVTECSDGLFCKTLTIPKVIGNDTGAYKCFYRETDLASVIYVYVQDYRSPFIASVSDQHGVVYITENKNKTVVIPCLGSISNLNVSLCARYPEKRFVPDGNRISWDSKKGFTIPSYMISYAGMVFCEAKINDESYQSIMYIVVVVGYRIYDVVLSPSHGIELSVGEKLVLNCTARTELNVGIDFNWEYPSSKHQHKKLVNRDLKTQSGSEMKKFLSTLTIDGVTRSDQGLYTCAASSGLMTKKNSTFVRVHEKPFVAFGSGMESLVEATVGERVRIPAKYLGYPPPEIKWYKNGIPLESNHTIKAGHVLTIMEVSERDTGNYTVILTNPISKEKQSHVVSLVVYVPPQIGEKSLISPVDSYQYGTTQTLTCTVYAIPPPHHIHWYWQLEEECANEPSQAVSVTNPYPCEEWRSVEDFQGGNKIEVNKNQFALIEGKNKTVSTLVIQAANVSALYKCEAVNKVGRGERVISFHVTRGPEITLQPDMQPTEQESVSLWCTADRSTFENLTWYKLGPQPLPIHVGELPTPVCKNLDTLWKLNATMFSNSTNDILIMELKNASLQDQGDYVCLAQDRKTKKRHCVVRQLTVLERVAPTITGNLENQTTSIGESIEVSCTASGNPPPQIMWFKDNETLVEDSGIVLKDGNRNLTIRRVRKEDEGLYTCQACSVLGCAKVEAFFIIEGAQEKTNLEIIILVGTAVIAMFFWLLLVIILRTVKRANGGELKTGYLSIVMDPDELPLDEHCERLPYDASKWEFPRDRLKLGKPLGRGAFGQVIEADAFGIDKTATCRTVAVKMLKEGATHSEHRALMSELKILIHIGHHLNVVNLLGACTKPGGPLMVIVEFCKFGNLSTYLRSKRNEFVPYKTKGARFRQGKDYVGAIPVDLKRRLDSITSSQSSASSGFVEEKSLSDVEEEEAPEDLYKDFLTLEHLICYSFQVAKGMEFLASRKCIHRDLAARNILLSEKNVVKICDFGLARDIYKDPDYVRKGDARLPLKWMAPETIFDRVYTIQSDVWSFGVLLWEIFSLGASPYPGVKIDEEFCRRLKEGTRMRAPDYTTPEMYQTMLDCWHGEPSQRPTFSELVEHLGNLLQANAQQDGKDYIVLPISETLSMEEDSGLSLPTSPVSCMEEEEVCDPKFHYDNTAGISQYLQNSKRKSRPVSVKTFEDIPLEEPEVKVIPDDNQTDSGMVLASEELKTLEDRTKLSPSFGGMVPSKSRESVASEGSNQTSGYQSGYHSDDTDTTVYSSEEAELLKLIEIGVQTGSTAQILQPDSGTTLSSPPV

On to `OC[C@@H](Nc1ncnc2sc(-c3ccc(O)cc3)cc12)c1ccccc1`, for which the inhibition in test [1] was 20%; in [2] it was 0%; in test [3], -2%; in test [4], 7%; in test [5], 13%; in test [6], 6%. Also, the inhibition is 31% in test [7]; 9% in [8]; 99% in [9]; 12% in test [10]; 21% in test [11]; 20% in [12]. The inhibition in test [13] is -9%. Besides, in the test on PBMC, the IC50 was over 30 µM.
`CN(C)CCn1cc(-c2cccc(O)c2)c2c(N)ncnc21`: the inhibition is 3% in test [1]; 15% in test [2]; 5% in [3]; -7% in test [4]; 65% in test [5]; 7% in test [6]. In addition, the inhibition was determined as 39% in [7]; 3% in test [8]; 4% in test [9]; 7% in test [10]; 6% in test [11]; 17% in test [12]. Besides, the inhibition in [13] is 2%. Further, the IC50 with PBMC was over 10 µM.
For `OCc1ccc(-c2cc3c(N[C@H](CO)c4ccccc4)ncnc3[nH]2)cc1`, the inhibition in test [1] was 71%; in [2] it was 6%; in [3] it was 4%; in [4], 3%; in test [5], 81%; in [6] it was 10%. Also, the inhibition came out at 96% in [7]; 4% in test [8]; 11% in [10]; 10% in test [11]; 38% in [12]; 6% in test [13]. Besides, the IC50 in the test on PBMC is over 10 µM.
As to `CCC(=O)Nc1ccc(-c2c[nH]c3ncnc(N[C@H](C)c4ccccc4)c23)cc1`, the inhibition was 12% in test [1]; 21% in test [2]; 1% in test [3]; -1% in [4]; 9% in test [5]; 31% in test [6]. The inhibition in [7] was determined as 21%; in test [8], 14%; in test [9], 98%; in test [10] it was 14%; in test [11], 15%; in test [12], 7%. Further, the inhibition in test [13] is 5%. Further, in the test on PBMC, the IC50 is over 10 µM.

What is called inhibition is the drop in the measured response relative to a control, in per cent. By IC50 is commonly meant the concentration that gives 50% inhibition.
